The test system of assay [1] is isolated rat aorta. Description: In vitro vasorelaxation, cumulative concentration-response curves on rat aortic rings contracted with epinephrine. Conditions: isolated rat aorta pre-treated with 1 μM epinephrine. In kind it is cell-based. An excerpt:
Male Sprague Dawley rats were anaesthetized using intraperitoneal injection of ketamine and xylazine (50 and 10 milligram per kilogram, respectively) and the thoracic aorta, the large upper portion of the descending aorta, starting at the caudal border of the chest bone, was removed thereafter, while carefully removing the paraadventetial tissue surrounding the vessel. Aortae were cut into rings of 4-5 millimeters and mounted onto the tissue path. The path buffer (Krebs-bicrbonate) was constantly gassed with carbogen and maintained at 37° C. The rings were preloaded under 2 g tension and equilibrated for 90 minutes, while refreshing the buffer every 15 minutes. After stabilization, the rings were contracted with epinephrine (1 μM). Cumulative Concentration-Response Curves (CCRC) were measured for the vasorelaxing effect induced by adding various concentrations, ranging from 10^−10 M to 10^−5 M of Pet-2, Pet-3, Pet-7, Pet-8, Pet-12, Pet-24, Pet-43, Pet-59, Pet-147, Pet-152 and Pet-154, and glyceryltrinitrate (GTN), according to the procedure described in Feelich et al., Molecular Pharmacology, 56:243-253 (1999). The vehicle, which was used for this experiment was water:ethanol:propyleneglycol at proportional ratio of 1:1:1.
The vasorelaxing effect of the thiazole-derived NO-donors according to the present invention was measured on slices of thoracic aorta of rats contracted with epinephrine, as described hereinabove.
The obtained results for Pet-2, Pet-3, Pet-7, Pet-8, Pet-12, Pet-24, Pet-43, Pet-59, Pet-147, Pet-152 and Pet-154 are presented in FIGS. 2-14, and are summarized in Table 3 below.

Assay [2] relates to c-GMP in slices of thoracic aorta of rats. Description: Cyclic-GMP measurement in aortic rat tissue (radioimmunoassay). Type of assay: cell-based. Conditions: for levels of cGMP as compared with GTN: isolated rat aorta, FIGS. 25, 27, 33; for cGMP Post-infusion: rat aorta, post-infusion (repeated treatment). How it is done: GTN (10^−6 M) was added to the chamber and, 1 minute after exposure to the drug, rings (usually 3-5) were taken, wrapped with aluminum foil and immediately frozen in liquid nitrogen for storage. Control sample group was treated with the vehicle solution only. At the time of analysis, rings were thawed, blotted over a dry gauzed and weighted. A known weight of tissue was homogenized in 2 ml ice-cold modified Hank's balanced salt solution containing (in gram/liter) NaCl 8; KCl 0.4; glucose 1; KH2PO4 0.06; Na2HPO4 0.047; Phenol red 0.017 and further containing 25 mM EDTA (disodium salt). The homogenate was centrifuged at 4000 g (force units) for 10 minutes at 2-4° C. and the supernatant was thereafter transferred into fresh pre-cooled test tube containing 1 ml of acetonitrile. The tubes were vortex mixed for a few seconds and subsequently centrifuged at 4000 g for 5 minutes at 2-4° C., to remove the precipitated protein. Each supernatant was transferred into a clean test tube and evaporated to dryness under a stream of nitrogen at 55° C. The dry residue was reconstituted with 10 volumes of Tris-EDTA buffer pH 7.5 (0.05 M Tris containing 4 mM EDTA). Aliquots of 100 μl of the reconstituted solution in duplicate were used for c-GMP measurements using Amersham RIA kit, as is described in Haj-Yehia & Benet [Pharmacology, 1995, 273, 1, pp. 94-100]. Standard curves were plotted with six concentrations (0, 0.5, 1, 2, 4 and 8 pmoles of c-GMP per tube).
The NO-tolerance effect of GTN and NO-donor compounds according to the present invention was measured by following the production of c-GMP in slices of thoracic aorta of rats. Thus, the production of c-GMP was measured as described in the methods section above for the reference NO-donor compound GTN, and for the NO-donors of the present invention Pet-2, Pet-3, Pet-7, Pet-8, Pet-10, Pet-12, Pet-24, Pet-59, Pet-147, Pet-149, Pet-152, Pet-154 and Pet-155.

Assay [3] deals with isolated rat aorta. Description: In vitro induction of tolerance to NO releasing compounds (vasorelaxation of pre-exposed aortic rings, incl. cross-tolerance). In kind it is cell-based. The conditions noted are these: rat aorta pre-treated with epinephrine and then 0.44 mM of the compound. How it is done:
Aortic rings were prepared as described hereinabove, and were exposed to 0.44 mM GTN (vehicle was water:ethanol:propyleneglycol at proportional ratio of 1:1:1) for 1 hour before CCRC construction, to thereby induce tolerance to nitroglycerine. At the end of the tolerance induction period, rings were thrice washed with the path buffer (Krebs-bicrbonate) every 15 minutes for the following hour and then CCRC for vasorelaxation on GTN-induced tolerance rings were constructed for GTN (pretreated versus untreated rings, FIG. 15), in order to verify the ability to induce and measure GTN tolerance induction in vitro
Attempted induction of tolerance to the NO-donating compounds of the present invention was performed under the same conditions as for GTN. Thus, in an exemplary experiment, rings were exposed to 0.44 mM solution of Pet-3 in the attempt to induce tolerance for Pet-3. CCRC were then measured for the vasorelaxing effect of Pet-3 on a group of rings which were pre-exposed to Pet-3 as to induce tolerance to Pet-3, and for an untreated control group. The above protocol was repeated with Pet-2, Pet-7, Pet-8, Pet-12, Pet-24, Pet-43, Pet-149 and Pet-152.
Cross-tolerance studies were conducted using the same technique described above for measuring vasorelaxation of aortic rings from rats. Two groups of aortic rings samples were pre-treated with GTN, then one group was measured for vasorelaxation by GTN and the second group for vasorelaxation by Pet-12, an exemplary NO-donor according to the present invention. For the opposite cross-tolerance studies, two groups of aortic rings samples were pre-treated with Pet-12, then one group was measured for vasorelaxation by GTN and the second group for vasorelaxation by Pet-12.

Assay [4] concerns anesthetized hypertensive Sprague-Dawley male rats. Description: Hypotensive effects: mean arterial pressure after iv bolus in phenylephrine-treated rats. In kind it is in vivo, rat. The conditions noted are these: rats pre-treated in vivo with phenylephrine; iv bolus 10-100 micrograms. An excerpt:
These techniques were also used to detect tolerance induction by the NO-donors of the present invention and by GTN. For c-GMP levels and tolerance development, the rat's thoracic aorta was isolated after exposure to the tested compound in vivo, and measured as described above in the in vitro assays.
Mean arterial pressure (MAP) was monitored and determined during bolus infusion of Pet-2, Pet-3, Pet-7, Pet-8, Pet-12 and Pet-13. Briefly, polyethylene catheters (PE50) were inserted into the carotid artery and into the jugular vein of anesthetized hypertensive Sprague-Dawley male rats (200-300 grams). A blood pressure recorder was placed within the carotid artery. Phenylephrine (0.1 mg) was then injected and the mean arterial blood pressure (MABP) was monitored continuously until a stable baseline was reached. The hypotensive effects of intravenous (iv) bolus doses (0.1 mg of each tested compound) administered intravenously at the jugular vein in minimal volume of vehicle (0.2 ml per dose) were evaluated. Five minutes were allowed between each dose, during which the maximal decrease in MAP was recorded and a dose-response graph comparing the hypotensive effect of the compounds was constructed.

The values that follow come from US7332513B2, “Thiazole-based nitric oxide donors having acyl substituent(s) and uses thereof” (priority 2004, dated 2008).

SMILES strings stand for the structures.

As for `Cc1nc(-c2ccc(C(F)(F)F)cc2)sc1CCO[N+](=O)[O-]` [Pet-59, 4-Methyl-5-(2-nitrooxy-ethyl)-2-(4-trifluoromethyl-phenyl)-thiazole], the “vasorelaxation effect as compared with glyceryltrinitrate (words)” value in assay [1] is recorded as “superior vasorelaxation effect”. For the same compound, the “levels of cGMP as compared with GTN” value in assay [2] is given as “increased levels of cGMP”.

With `CCNc1nc(C)c(CCO[N+](=O)[O-])s1` [Pet-147, Ethyl-[4-methyl-5-(2-nitrooxy-ethyl)-thiazol-2-yl]-amine], the “levels of cGMP as compared with GTN” value in assay [2] was “increased levels of cGMP”.

Turning to `Cc1nc(Nc2cccc3ccccc23)sc1CCO[N+](=O)[O-]` [Pet-149, [4-Methyl-5-(2-nitrooxy-ethyl)-thiazol-2-yl]-naphthalen-1-yl-amine], in assay [3], the “tolerance induction after pre-treatment with the same compound” value (from here on “tolerance induction after pre-treatment”) is reported as “absence of tolerance induction”. In addition, the “vasorelaxation effect as compared with glyceryltrinitrate (words)” value in assay [1] was “superior vasorelaxation effect”. In addition, in assay [2], the “levels of cGMP as compared with GTN” value was “increased levels of cGMP” and the “cGMP Post-infusion” value came to 115 ± 14 pmol/g tissue.

With `Cc1nc(C)c(CCO[N+](=O)[O-])s1` [Pet-3, 2,4-Dimethyl-5-(2-nitrooxy-ethyl)-thiazole], the “tolerance induction after pre-treatment” value in assay [3] is listed as “absence of tolerance induction”. Also, in assay [1], the “vasorelaxation effect as compared with glyceryltrinitrate (words)” value is given as “superior vasorelaxation effect”. For the same compound, in assay [2], the “levels of cGMP as compared with GTN” value is listed as “increased levels of cGMP” and the “cGMP Post-infusion” value turned out to be 118 ± 10 pmol/g tissue.

As for `CNc1cncc(-c2nc(C)c(CCO[N+](=O)[O-])s2)n1` [Pet-24, Methyl-{6-[4-methyl-5-(2-nitrooxy-ethyl)-thiazol-2-yl]-pyrazin-2-yl}-amine], in assay [3], the “tolerance induction after pre-treatment” value is on record as “absence of tolerance induction”. Besides, in assay [2], the “levels of cGMP as compared with GTN” value was “increased levels of cGMP” and the “cGMP Post-infusion” value is reported as 112 ± 10 pmol/g tissue.

Consider `C=CCNc1nc(C)c(CCO[N+](=O)[O-])s1` [Pet-155, allyl-[4-methyl-5-(2-nitrooxy-ethyl)-thiazol-2-yl]-amine], for which the “vasorelaxation effect as compared with glyceryltrinitrate (words)” value in assay [1] is “superior vasorelaxation effect”. In addition, the “levels of cGMP as compared with GTN” value in assay [2] is recorded as “increased levels of cGMP”.

`Cc1nc(CCCCc2nc(C)c(CCO[N+](=O)[O-])s2)sc1CCO[N+](=O)[O-]` [Pet-13]: the “hypotensive / vasorelaxation effect on heightened mean arterial blood pressure” value in assay [4] was “vasorelaxation effect”.

In the case of `Cc1nc(N(C)C)sc1CCO[N+](=O)[O-]` [Pet-7, Dimethyl-[4-methyl-5-(2-nitrooxy-ethyl)-thiazol-2-yl]-amine], the “tolerance induction after pre-treatment” value in assay [3] is recorded as “absence of tolerance induction”. Further, in assay [1], the “vasorelaxation effect as compared with glyceryltrinitrate” value came out at 10 fold and the “vasorelaxation effect as compared with glyceryltrinitrate (words)” value was “superior”. Further, in assay [4], the “hypotensive / vasorelaxation effect on heightened mean arterial blood pressure” value is “vasorelaxation effect”. In assay [2], the “levels of cGMP as compared with GTN” value was “increased levels of cGMP” and the “cGMP Post-infusion” value is on record as 123 ± 12 pmol/g tissue.

As to `Cc1nc(-c2ccccc2)sc1CCO[N+](=O)[O-]` [Pet-8, 4-Methyl-5-(2-nitrooxy-ethyl)-2-phenyl-thiazole], the “vasorelaxation effect as compared with glyceryltrinitrate (words)” value in assay [1] was “superior vasorelaxation effect”. Also, in assay [2], the “levels of cGMP as compared with GTN” value was “increased levels of cGMP” and the “cGMP Post-infusion” value was 136 ± 12 pmol/g tissue.

As for `Cc1nc(NC(=O)[C@@H](C)c2ccc(CC(C)C)cc2)sc1CCO[N+](=O)[O-]` (stereo in doubt) [Pet-152, 2-(4-Isobutyl-phenyl)-N-[4-methyl-5-(2-nitrooxy-ethyl)-thiazol-2-yl]-propionamide], the “vasorelaxation effect as compared with glyceryltrinitrate (words)” value in assay [1] is listed as “superior vasorelaxation effect”. Further, in assay [2], the “levels of cGMP as compared with GTN” value is “increased levels of cGMP”.

In the case of `Cc1nc(Nc2nc(C)c(CCO[N+](=O)[O-])s2)sc1CCO[N+](=O)[O-]` [Pet-43, Bis-[4-methyl-5-(2-nitrooxy-ethyl)-thiazol-2-yl]-amine], the “tolerance induction after pre-treatment” value in assay [3] is “absence of tolerance induction”. Also, the “vasorelaxation effect as compared with glyceryltrinitrate (words)” value in assay [1] was “superior vasorelaxation effect”.

For `Cc1nc(NC(=O)c2cccnc2)sc1CCO[N+](=O)[O-]` [Pet-154, N-[4-methyl-5-(2-nitrooxy-ethyl)-thiazol-2-yl]-nicotinamide], the “levels of cGMP as compared with GTN” value in assay [2] is listed as “increased levels of cGMP”.

Turning to `Cc1nc(N)sc1CCO[N+](=O)[O-]` [Pet-10, 4-methyl-5-(2-nitrooxy-ethyl)-thiazole-2-ylamine], the “levels of cGMP as compared with GTN” value in assay [2] is “increased levels of cGMP”.
